Experimental data from patent publication US10159678B2, “Methods to decrease susceptibility to asthmatic bronchoconstriction” (Cornell University, priority 2012, dated 2018).

Tested on: lung inflammation
Assay: Assessment of inflammation (BAL cells, lung histology, cytokine mRNA) after myriocin
Type: in vivo, mice
Procedure: BAL was collected by intratracheal instillations of PBS (2×0.5 ml). Cell differentials were determined by Giemsa stain on cytospin preparations. Cell viability was determined by trypan blue exclusion. Expression of TNF-α, IL-6 and IL-1β in the lung was quantified by TaqMan RealTime RT-PCR. RNA was extracted using TRIzol (Invitrogen). […] RNA levels were quantified using the ΔΔCt method and normalized to expression of murine ribosomal 18s (4310893E, Applied Biosystems). For lung histology, lungs were inflated with 4% paraformaldehyde at 25 cm H2O and 5 μm paraffin sections were stained with hematoxylin and eosin (H&E).

CCCCCCC(=O)CCCCCC/C=C/C[C@@H](O)[C@H](O)[C@@](N)(CO)C(=O)O [myriocin]
expression of IL-6 in the lungs (myriocin (20 μg) vs controls, FIG. 4H): No increases
expression of IL-1β in the lungs (myriocin (20 μg) vs controls, FIG. 4I): No increases
TNF-α expression in the lungs (myriocin (20 μg) vs controls, FIG. 4J): less
number of neutrophils in the BAL (myriocin-treated (20 μg) animals, FIG. 4B): small increase
inflammatory changes in lung sections (H&E) (myriocin-treated (20 μg) mice): No inflammatory changes
